In US9180111B2, “Reduction in complement activation and inflammation during tissue injury by carotenoids, carotenoid analogs, or derivatives thereof” (Cardax Pharma, Inc., priority 2005, dated 2015):

Assays:
Assay type in all cases: in vivo, rabbit
[1] = test system: New Zealand white rabbits; assay: Myocardial infarct size after 30 min LAD coronary artery occlusion and 3 h reperfusion (tetrazolium method)
Protocol: Male New Zealand white rabbits (2.3-2.6 kg) were assigned randomly to two separate groups. Each animal received DDA aqueous formulation (50 mg/kg), or an equal volume of sterile NaCl solution, once per day intravenously. The dose of DDA was selected based on the findings of previous investigations in which it was determined that a dosing regimen over four days produced statistically significant myocardial salvage in Sprague-Dawley rats (41% mean salvage at 50 mg/kg) and mongrel canines (68% mean salvage at 50 mg/kg) after ischemia and reperfusion (Gross and Lockwood, 2004; Gross and Lockwood, In Press). The animals in each group received the respective treatments on each of four consecutive days, with the experimental protocol being initiated on fifth day.
One day after the last treatment (DDA or placebo), rabbits were anesthetized with a combination of xylazine (3.0 mg/kg) and ketamine (35 mg/kg) administered intramuscularly, followed by an intravenous injection of sodium pentobarbital (15 mg/kg). An endotracheal tube was inserted and the animals were placed on a positive pressure ventilator (Harvard Apparatus, Cambridge, Mass.). The right jugular vein was cannulated for blood sampling and the right carotid artery was instrumented with a Millar catheter micro-tip pressure transducer (Millar Instruments Inc., Houston, Tex.). The Millar catheter transducer was positioned immediately above the aortic valves to monitor aortic blood pressure. The lead II electrocardiogram was monitored throughout the protocol. A left thoracotomy and pericardiotomy were performed, followed by identification of the left anterior descending coronary artery. A silk suture (3-0; Genzyme Corporation, Fall River, Mass.) was passed under the artery and around a short length of polyethylene tubing. […] Coronary artery occlusion was maintained for 30 min after which time reperfusion was initiated by withdrawing the polyethylene tubing. […]

[2] = Plasma and tissue concentrations of non-esterified, free astaxanthin at the end of reperfusion; settings: rabbits, DDA 50 mg/kg i.v. for 4 days, end of 3 h reperfusion
Description: To determine the plasma and tissue concentrations of non-esterified, free astaxanthin in blood and organs, samples were taken at the end of reperfusion in selected rabbits (n=5) treated with DDA, and determined by methods previously described (Osterlie et al., 2000). Non-esterified, free astaxanthin, in vivo, is generated after cleavage of the water-dispersible disuccinate diester to monosuccinate, and subsequently to non-esterified, free astaxanthin by the intrinsic esterase activity of serum albumin (Curry et al., 1999), or by non-specific esterase activity in plasma and solid organs (Jensen et al., 1999). Non-esterified, free astaxanthin then accumulates in myocardium and other tissues after plasma clearance in a dose-dependent manner after both oral (Showalter et al., 2004) and intravenous administration (Gross and Lockwood 2004a,b).

MAC (C5b-9) = assay: MAC deposition in heart tissue by indirect immunofluorescence; settings: rabbits, 50 mg/kg i.v. 4 days, 30 min ischemia, 3 h reperfusion; p<0.05
Protocol: The immunofluorescent method for detection of CRP was performed essentially as described previously (Lauver et al., 2005). Briefly, tissue samples used for infarct size determination were fixed in 10% buffered formalin immediately after the completion of the experimental protocol. The tissue samples were embedded in paraffin blocks and cut into sections of 2 μm in thickness, which were then mounted on glass slides. Two consecutive sections (mirror images) from a single heart slice were mounted on each slide. The slides were deparaffinized and subjected to antigen unmasking using a commercially available kit for this purpose (Vector Laboratories, Burlingame, Calif.). After blocking for 30 minutes, primary antibodies were incubated at room temperature in a humidity chamber for 45 minutes. One section per slide was incubated with a chicken anti-rabbit CRP antibody (5 μg/ml final concentration, Strategic BioSolutions, Newark, Del.) and the other section was incubated with a chicken anti-rabbit MAC antibody (1:2500 final dilution, developed in conjunction with Lampire Biological Laboratories, Pipersville, Pa.). […] Images were analyzed using IP Lab (Scanalytics, Inc., Fairfax, Va.) software to determine mean fluorescence intensity per heart section. […]

SMILES: CC1=C(/C=C/C(C)=C/C=C/C(C)=C/C=C/C=C(C)/C=C/C=C(C)/C=C/C2=C(C)C(=O)C(OC(=O)CCC(=O)O)CC2(C)C)C(C)(C)CC(OC(=O)CCC(=O)O)C1=O (stereo not drawn) [DDA, disodium disuccinate astaxanthin]
- mean myocardial salvage ([1]; 50 mg/kg daily i.v. for four days, versus placebo): 51%
- mean infarct size expressed as a percentage of the area at risk ([1]; 50 mg/kg/day i.v. for 4 days, 30 min occlusion, 3 h reperfusion, mean ± S.E.M.): 25.8±4.2%
- heart rate, blood pressure, blood gases versus saline group ([1]; baseline and throughout protocol on day 5): No differences
- mean myocardial tissue concentration of non-esterified astaxanthin [2]: > 10 µM
- mean plasma concentration of non-esterified, free astaxanthin [2]: 222 ± 51 nM
- MAC deposition in infarct region (fluorescence intensity) versus saline (MAC (C5b-9)): significantly reduced fluorescence
